In US11168073B2, “3,3-difluoroallylamines or salts thereof and pharmaceutical compositions comprising the same” (YUHAN CORPORATION, priority 2018, dated 2021):
Counter-ions that a name gives are not always drawn.

Columns and labels:
Type in all cases: biochemical
recombinant human VAP-1 = molecular target: T1, recombinant human VAP-1 (Homo sapiens, UniProt Q16853); assay: Activity evaluation on recombinant human VAP-1 (Amplex Red/HRP-coupled hydrogen peroxide assay, benzylamine substrate); settings: recombinant human VAP-1; 30 min preincubation at 37° C.; 1 mM benzylamine; read-out: Inhibitory Activity (IC50, nM) human VAP-1
T1 construct: purchased R&D systems
T1 sequence (Q16853 1-763): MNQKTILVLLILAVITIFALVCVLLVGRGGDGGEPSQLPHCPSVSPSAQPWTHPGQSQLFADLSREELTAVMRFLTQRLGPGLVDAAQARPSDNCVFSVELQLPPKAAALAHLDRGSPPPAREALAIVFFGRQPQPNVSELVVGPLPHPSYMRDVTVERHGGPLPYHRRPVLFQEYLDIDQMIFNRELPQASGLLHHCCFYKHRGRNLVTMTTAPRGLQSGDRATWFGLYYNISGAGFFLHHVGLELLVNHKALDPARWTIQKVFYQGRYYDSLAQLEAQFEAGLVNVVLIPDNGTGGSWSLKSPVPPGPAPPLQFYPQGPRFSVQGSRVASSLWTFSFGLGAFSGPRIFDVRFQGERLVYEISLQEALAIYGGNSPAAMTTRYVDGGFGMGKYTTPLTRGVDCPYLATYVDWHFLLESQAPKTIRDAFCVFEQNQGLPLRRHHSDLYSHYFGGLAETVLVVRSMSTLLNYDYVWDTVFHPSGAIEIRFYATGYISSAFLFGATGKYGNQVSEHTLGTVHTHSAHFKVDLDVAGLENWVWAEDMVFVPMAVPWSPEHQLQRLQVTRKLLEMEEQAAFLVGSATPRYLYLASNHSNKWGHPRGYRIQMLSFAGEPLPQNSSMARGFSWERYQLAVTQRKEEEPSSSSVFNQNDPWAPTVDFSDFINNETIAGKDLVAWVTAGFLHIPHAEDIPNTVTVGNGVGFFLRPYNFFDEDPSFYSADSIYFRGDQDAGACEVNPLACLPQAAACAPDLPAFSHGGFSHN
How it was run: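 Recombinant human VAP-1 in 50 mM sodium phosphate pH 7.4 preincubated 30 min at 37 °C with compound (8-point 1:3 series, <1% DMSO), then 1 mM benzylamine, 200 uM Amplex Red, 1 U/mL HRP added. H2O2-derived resorufin fluorescence (ex 544/em 590) followed 1–2 h; IC50 from four-parameter fit of rate inhibition.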

[1] = molecular target: T2, recombinant human MAO-A (monoamine oxidase-A) (Homo sapiens, UniProt P21397); assay: Activity evaluation on recombinant human MAO-A (Amplex Red/HRP-coupled assay, 0.5 mM tyramine substrate); settings: 0.5 mM tyramine, read-out: Inhibitory Activity (IC50, nM) MAO-A
T2 construct: purchased Sigma-Aldrich
T2 sequence (P21397 1-527): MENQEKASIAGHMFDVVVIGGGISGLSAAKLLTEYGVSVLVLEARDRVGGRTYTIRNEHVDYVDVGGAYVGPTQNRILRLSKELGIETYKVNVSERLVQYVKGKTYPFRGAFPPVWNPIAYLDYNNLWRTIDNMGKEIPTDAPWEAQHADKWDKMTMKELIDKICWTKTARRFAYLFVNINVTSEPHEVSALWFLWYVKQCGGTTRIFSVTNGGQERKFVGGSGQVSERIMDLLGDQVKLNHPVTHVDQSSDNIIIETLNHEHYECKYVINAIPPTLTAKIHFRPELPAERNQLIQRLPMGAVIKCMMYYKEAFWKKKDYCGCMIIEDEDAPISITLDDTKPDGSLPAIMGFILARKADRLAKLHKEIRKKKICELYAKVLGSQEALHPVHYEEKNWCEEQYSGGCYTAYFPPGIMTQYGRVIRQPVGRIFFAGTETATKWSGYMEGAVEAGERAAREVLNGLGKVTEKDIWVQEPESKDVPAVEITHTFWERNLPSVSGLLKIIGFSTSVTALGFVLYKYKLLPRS
How it was run: (§1)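 Compounds preincubated 30 min at 37 °C with enzyme in 50 mM sodium phosphate pH 7.4 (final DMSO <1%, 8-point 1:3 dilutions); reaction started with 200 uM Amplex Red, 1 U/mL HRP and substrate (MAO-A 0.5 mM tyramine, MAO-B 1 mM benzylamine, DAO 1 mM putrescine). Resorufin fluorescence (ex 544/em 590 nm) followed over 1-2 h; IC50 from four-parameter logistic fit.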

[2] = molecular target: T3, recombinant human MAO-B (monoamine oxidase-B) (Homo sapiens, UniProt P27338); assay: Activity evaluation on recombinant human MAO-B (Amplex Red/HRP-coupled assay, 1 mM benzylamine substrate); settings: 1 mM benzylamine, read-out: Inhibitory Activity (IC50, nM) MAO-B
T3 construct: purchased Sigma-Aldrich
T3 sequence (P27338 1-520): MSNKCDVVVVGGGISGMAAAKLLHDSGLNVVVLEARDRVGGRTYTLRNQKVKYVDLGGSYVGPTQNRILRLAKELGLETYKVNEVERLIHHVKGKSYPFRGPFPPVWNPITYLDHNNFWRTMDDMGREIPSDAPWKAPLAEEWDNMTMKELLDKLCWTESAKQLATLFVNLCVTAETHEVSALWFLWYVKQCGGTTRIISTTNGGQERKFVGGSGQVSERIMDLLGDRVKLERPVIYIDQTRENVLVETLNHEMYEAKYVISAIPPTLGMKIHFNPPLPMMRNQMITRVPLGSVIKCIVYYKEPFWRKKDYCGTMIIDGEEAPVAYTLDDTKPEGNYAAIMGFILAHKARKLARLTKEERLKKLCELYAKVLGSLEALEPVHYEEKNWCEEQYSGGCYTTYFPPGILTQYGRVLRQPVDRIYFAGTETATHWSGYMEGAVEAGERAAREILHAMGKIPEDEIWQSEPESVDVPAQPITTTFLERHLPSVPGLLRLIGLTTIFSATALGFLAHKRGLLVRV
How it was run: as §1

[3] = molecular target: T4, recombinant human DAO (diamine oxidase) (Homo sapiens, UniProt P19801); assay: Activity evaluation on recombinant human DAO (Amplex Red/HRP-coupled assay, 1 mM putrescine substrate); settings: 1 mM putrescine, read-out: Inhibitory Activity (IC50, nM) DAO
T4 construct: purchased R&D systems
T4 sequence (P19801 20-751): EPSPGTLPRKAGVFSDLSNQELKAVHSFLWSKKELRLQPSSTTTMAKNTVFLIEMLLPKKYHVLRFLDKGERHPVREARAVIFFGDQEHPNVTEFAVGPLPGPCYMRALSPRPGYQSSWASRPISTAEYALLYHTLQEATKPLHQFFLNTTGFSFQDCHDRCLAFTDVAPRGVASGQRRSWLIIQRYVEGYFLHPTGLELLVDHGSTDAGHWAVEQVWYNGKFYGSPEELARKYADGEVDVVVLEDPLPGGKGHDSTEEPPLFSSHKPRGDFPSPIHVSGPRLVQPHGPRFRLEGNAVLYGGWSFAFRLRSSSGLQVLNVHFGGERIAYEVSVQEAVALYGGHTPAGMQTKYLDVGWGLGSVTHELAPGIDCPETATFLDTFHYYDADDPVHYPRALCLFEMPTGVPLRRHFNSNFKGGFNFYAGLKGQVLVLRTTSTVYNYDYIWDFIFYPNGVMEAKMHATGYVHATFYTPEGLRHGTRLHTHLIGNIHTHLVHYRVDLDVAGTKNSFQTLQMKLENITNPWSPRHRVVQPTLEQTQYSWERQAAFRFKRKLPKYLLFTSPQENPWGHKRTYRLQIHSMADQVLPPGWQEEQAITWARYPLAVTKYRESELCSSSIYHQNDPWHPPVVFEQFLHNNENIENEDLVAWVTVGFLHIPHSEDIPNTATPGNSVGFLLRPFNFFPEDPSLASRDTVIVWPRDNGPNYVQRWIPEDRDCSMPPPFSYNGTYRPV
How it was run: as §1

Compound	IC50 (recombinant human VAP-1) [nM]	IC50 [1] [nM]	IC50 [2] [nM]	IC50 [3] [nM]
NCC(Cn1ncn(Cc2ccc(C#Cc3ccc4c(n3)OCCN4)s2)c1=O)=C(F)F [Example 168, 2-[2-(aminomethyl)-3,3-difluoro-allyl]-4-[[5-[2-(2,3-dihydro-1H-pyrido[2,3-b][1,4]oxazin-6-yl)ethynyl]-2-thienyl]methyl]-1,2,4-triazol-3-one Ditrifluoroacetate]	1	> 10000	45000	> 100000
NCC(Cn1ncn(Cc2ccc(C#Cc3cnc4c(c3)OCC(=O)N4)s2)c1=O)=C(F)F [Example 170, 7-[2-[5-[[1-[2-(aminomethyl)-3,3-difluoro-allyl]-5-oxo-1,2,4-triazol-4-yl]methyl]-2-thienyl]ethynyl]-4H-pyrido[3,2-b][1,4]oxazin-3-one Trifluoroacetate]	0.8	> 100000	14000	> 10000
Cn1cc(C#Cc2ccc(Cn3cnn(CC(CN)=C(F)F)c3=O)s2)cn1 [Example 171, 2-[2-(aminomethyl)-3,3-difluoro-allyl]-4-[[5-[2-(1-methylpyrazol-4-yl)ethynyl]-2-thienyl]methyl]-1,2,4-triazol-3-one Trifluoroacetate]	1.8	> 100000	50000	> 100000
NCC(Cn1ncn(CCc2cccs2)c1=O)=C(F)F [Example 172, 2-[2-(aminomethyl)-3,3-difluoro-allyl]-4-[2-(2-thienyl)ethyl]-1,2,4-triazol-3-one Trifluoroacetate]	13	> 100000	61000	> 100000
NCC(Cn1ncn(CCc2ccc(-c3ccc(N4CCNCC4)cc3)s2)c1=O)=C(F)F [Example 174, 2-[2-(aminomethyl)-3,3-difluoro-allyl]-4-[2-[5-(4-piperazin-1-ylphenyl)-2-thienyl]ethyl]-1,2,4-triazol-3-one Ditrifluoroacetate]	1.3	> 100000	> 100000	29
NCC(Cn1ncn(CCc2ccc(-c3ccc4c(c3)OCO4)s2)c1=O)=C(F)F [Example 177, 2-[2-(aminomethyl)-3,3-difluoro-allyl]-4-[2-[5-(1,3-benzodioxol-5-yl)-2-thienyl]ethyl]-1,2,4-triazol-3-one Trifluoroacetate]	1.2	> 100000	700	2500
CCn1cc(-c2ccc(CCn3cnn(CC(CN)=C(F)F)c3=O)s2)cn1 [Example 180, 2-[2-(aminomethyl)-3,3-difluoro-allyl]-4-[2-[5-(1-ethylpyrazol-4-yl)-2-thienyl]ethyl]-1,2,4-triazol-3-one Trifluoroacetate]	0.6	> 100000	61000	1900

Further compounds by falling IC50 (recombinant human VAP-1), results first:

IC50 (recombinant human VAP-1) [nM]	IC50 [1] [nM]	IC50 [2] [nM]	IC50 [3] [nM]	Compound
0.6	> 100000	> 100000	350	Cc1cc(-c2ccc(CCn3cnn(CC(CN)=C(F)F)c3=O)s2)cc2c1NC(=O)CC2 [Example 178, 6-[5-[2-[1-[2-(aminomethyl)-3,3-difluoro-allyl]-5-oxo-1,2,4-triazol-4-yl]ethyl]-2-thienyl]-8-methyl-3,4-dihydro-1H-quinolin-2-one Trifluoroacetate]
0.5	> 100000	> 100000	1100	CN(C)c1ccc(-c2ccc(CCn3cnn(CC(CN)=C(F)F)c3=O)s2)cn1 [Example 176, 2-[2-(aminomethyl)-3,3-difluoro-allyl]-4-[2-[5-[6-(dimethylamino)-3-pyridyl]-2-thienyl]ethyl]-1,2,4-triazol-3-one Trifluoroacetate]
0.4	> 100000	14000	250	NCC(Cn1ncn(CCc2ccc(-c3ccc(C(F)(F)F)nc3)s2)c1=O)=C(F)F [Example 175, 2-[2-(aminomethyl)-3,3-difluoro-allyl]-4-[2-[5-[6-(trifluoromethyl)-3-pyridyl]-2-thienyl]ethyl]-1,2,4-triazol-3-one Trifluoroacetate]
0.3	> 100000	69000	260	CS(=O)(=O)c1ccc(-c2ccc(CCn3cnn(CC(CN)=C(F)F)c3=O)s2)cc1 [Example 173, 2-[2-(aminomethyl)-3,3-difluoro-allyl]-4-[2-[5-(4-methylsulfonylphenyl)-2-thienyl]ethyl]-1,2,4-triazol-3-one trifluoroacetate]
0.3	> 100000	> 100000	290	CN1C(=O)CCc2cc(-c3ccc(CCn4cnn(CC(CN)=C(F)F)c4=O)s3)ccc21 [Example 179, 6-[5-[2-[1-[2-(aminomethyl)-3,3-difluoro-allyl]-5-oxo-1,2,4-triazol-4-yl]ethyl]-2-thienyl]-1-methyl-3,4-dihydroquinolin-2-one Trifluoroacetate]
0.2	> 100000	> 100000	> 100000	NCC(Cn1ncn(Cc2ccc(C#Cc3cnc4c(c3)NC(=O)CO4)s2)c1=O)=C(F)F [Example 169, 7-[2-[5-[[1-[2-(aminomethyl)-3,3-difluoro-allyl]-5-oxo-1,2,4-triazol-4-yl]methyl]-2-thienyl]ethynyl]-1H-pyrido[2,3-b][1,4]oxazin-2-one Trifluoroacetate]
